≈ marks a conversion by molar mass, not a printed value.
How the values were obtained:
Test in all cases: Antibacterial screening, broth microdilution (MIC/MBC)
[1] = system: S. aureus ATCC 29213; assay type: cell-based, Staphylococcus aureus; details: Staphylococcus aureus, ATCC29213; for MIC: S. aureus ATCC 29213, MHB, 24 h, 35 °C, read-out: MIC; for MBC: S. aureus ATCC 29213, read-out: MBC
Protocol: (§1) The antimicrobial activities of a series of compounds 1–5 were tested through the utilization of seven reference species, encompassing both Gram-positive (Staphylococcus aureus ATCC 29213, Staphylococcus epidermidis ATCC 12228, Micrococcus luteus ATCC 10240) and Gram-negative (Escherichia coli ATCC 25922, Klebsiella pneumoniae ATCC 13883, Proteus mirabilis ATCC 12453, Acinetobacter baumannii ATCC 19606) bacteria as model microorganisms. For this purpose, microbial suspensions were prepared in sterile saline (0.85% NaCl) with an optical density of 0.5 McFarland standard, yielding a concentration of 150 × 10^6 CFU/mL (CFU, colony-forming units). All of the stock solutions of the tested compounds were dissolved in DMSO. Amoxicillin (Glentham Life Sciences Ltd., Corsham, UK) was used as a positive control.
(§2) The MIC values of the tested compounds were determined by serial twofold dilutions of 1–5 in Mueller Hinton Broth (MHB, Biomaxima, Lublin, Poland). The range of final 1–5 concentrations used was from 0.49 up to 1000 μg/mL, and for amoxicillin from 0.12 up to 250 μg/mL in the 96-well microtiter plates (Medlab, Raszyn, Poland), starting with 98 μL MHB and 2 μL bacterial inoculum added to each well. Positive controls consisted of 100 μL MHB in each well with the tested compounds at the same concentration range. The negative controls consisted of 100 μL of MHB only. Each set of tests and controls was established with three replicates. The microtiter plates were then subjected to an incubation period of 24 h at a temperature of 35 ± 2 °C. After incubation, the optical density of the microbial growth was measured at a wavelength of 600 nm using a microplate reader, the Biotek Elx800 (BioTek Instruments, Inc., Winooski, VT, USA). The MIC value was defined as the lowest concentration of the tested compound at which there was no visible growth of the tested microorganisms. The determination of the MIC values was achieved by employing the broth microdilution method, in accordance with the recommendations of the European Committee on Antimicrobial Susceptibility Testing (EUCAST). […] Then, the MHA plates were incubated overnight at 35 ± 2 °C. […] The MIC and MBC values were reported in μg/mL, according to the EUCAST reference.

[2] = system: S. epidermidis ATCC 12228; assay type: cell-based, Staphylococcus epidermidis; details: for MIC / MBC: Staphylococcus epidermidis, ATCC12228; for MIC: S. epidermidis ATCC 12228, MHB, 24 h, 35 °C, read-out: MIC; for MBC: read-out: MBC
Protocol: as §1, §2

[3] = system: M. luteus ATCC 10240; assay type: cell-based, Micrococcus luteus; details: Micrococcus luteus, ATCC10240; M. luteus ATCC 10240; read-out: MBC
Protocol: as §1, §2

[4] = system: E. coli ATCC 25922; assay type: cell-based, Escherichia coli; details: Escherichia coli, ATCC25922; for MIC: E. coli ATCC 25922, MHB, 24 h, 35 °C, read-out: MIC
Protocol: as §1, §2

[5] = system: K. pneumoniae ATCC 13883; assay type: cell-based, Klebsiella pneumoniae; details: Klebsiella pneumoniae, ATCC13883; K. pneumoniae ATCC 13883, MHB, 24 h, 35 °C; read-out: MIC
Protocol: as §1, §2

MIC [1] [µg/mL]	MIC [2] [µg/mL]	MIC [4] [µg/mL]	MIC [5] [µg/mL]	SMILES	MBC [1] [µg/mL]	type of activity (bactericidal or bacteriostatic) ([2]; S. epidermidis ATCC 12228)	MBC ([2]; S. epidermidis ATCC 12228) [µg/mL]	MBC [3] [µg/mL]	MBC ([4]; E. coli ATCC 25922) [µg/mL]
15.6 to 31.2 (≈ 27.6 to 55.1 µM)	15.6 to 31.2 (≈ 27.6 to 55.1 µM)	500 to 1000 (≈ 882 to 1760 µM)	> 1000	COc1cc(OC)c(-c2c(P(=O)(C3CCCCC3)C3CCCCC3)c(OC)c3ccccc3c2OC)c(OC)c1 [Compound 1, Dicyclohexyl[1,4-dimethoxy-3-(2,4,6-trimethoxyphenyl)naphthalen-2-yl]phosphane oxide]	> 1000	bactericidal	250 (≈ 441 µM)	125 (≈ 221 µM)	–
7.82 to 15.6 (≈ 15.4 to 30.9 µM)	3.91 to 7.89 (≈ 7.72 to 15.6 µM)	> 1000	> 1000	COc1ccccc1-c1c(P(=O)(C2CCCCC2)C2CCCCC2)c(OC)c2ccccc2c1OC [Compound 2, Dicyclohexyl[1,4-dimethoxy-3-(2-methoxyphenyl)naphthalen-2-yl]phosphane oxide]	> 1000	–	> 1000	> 1000	–
62.5 to 125 (≈ 113 to 226 µM)	31.2 (≈ 56.5 µM)	250 to 500 (≈ 452 to 905 µM)	500 (≈ 905 µM)	COc1cc(OC)c(-c2c(P(=O)(C3CCCCC3)C3CCCCC3)c(O)c3ccccc3c2OC)c(OC)c1 [Compound 3, 2-(Dicyclohexylphosphoryl)-4-methoxy-3-(2,4,6-trimethoxyphenyl)naphthalen-1-ol]	> 1000	–	> 1000	> 1000	> 1000

— paper PMC12525867, “Aromaticity Tuning in Biaryl Monophosphines and Their Derivatives” (Molecules, 2025)
